Assay results as given in patent publication US9163018B2, “Method of treatment of age-related macular degeneration (AMD)” (Prana Biotechnology Limited, priority 2006, dated 2015).

Assays:
Aβ 1-42 = target: T1, Aβ 1-42 (Homo sapiens, UniProt P05067); experiment: Fluorometric H2O2 assay (inhibition of Abeta H2O2 production); format: biochemical; settings: concentration required to inhibit 50% of Abeta H2O2 production; read-out: H2O2 IC50
T1 construct: The reaction solutions contained Aβ 1-42 at concentrations
Description: Assay 1. Fluorometric H2O2 Assay
A fluorometric assay was used to test the ability of a test compound to inhibit hydrogen peroxide generation by Aβ in the presence of copper based on dichlorofluoroscein diacetate (DCF; Molecular Probes, Eugene Oreg.). The DCF solution (5 mM) in 100% dimethyl sulphoxide (previously purged with argon for 2 hr at 20° C.) was deacetylated in the presence of 0.25M NaOH for 30 min and neutralized at pH 7.4 to a final concentration of 1 mM. Horseradish peroxidase (HRP) stock solution was prepared to 1 μM at pH 7.4. The reactions were carried out in PBS, pH 7.4 in a 96 well plate (total volume=250 μl/well). […] The reaction mixture was incubated at 37 C for 60 min. […] H2O2 concentration may be established by comparing fluorescence with the H2O2 standards, Inhibition of Aβ H2O2 production was assayed by including a given concentration of test compound(s) in the test wells.

[1] = tested on: primary cortical neuronal cultured cells; experiment: Test compound cytotoxicity, MTS assay, primary cortical neuronal cultures; format: cell-based, mouse; settings: for Cytotox (% viable) Neuronal cells at 1 μM: 1 μM test compound; for Cytotox (% viable) Neuronal cells at 10 μM: 10 μM test compound
Description: Assay 2. Neurotoxicity Assays
Primary Cortical Neuronal Cultures
Media was then replaced with Neurobasal media (Invitrogen Life Technologies) and B27 supplements (Invitrogen Life Technologies). Cultures were maintained at 37° C. in 5% CO2. Prior to experimentation, the culture medium was replaced with Neurobasal media and B27 minus antioxidants (Invitrogen Life Technologies).
(§1) Assay 3. MTS Assay for Cell Viability
(§2) Cell viability is determined using the MTS assay. Culture medium is replaced with fresh neurobasal medium plus B27 supplements minus antioxidants. 1/10th volume MTS solution (Cell Titre 96 Aqueous One, Promega Corporation) and incubated at 37° C., 2 hrs. 200 microliter aliquots are measured with a spectrophotometer at 560 nm.
Assay 4. Assay for Test Compound Cytoxicity
Neuronal cortical cells were cultured for five days as per Assay 2 in NB media and B27 supplement.
On day six the test compounds were added to the neuronal cell cultures in NB media and B27 supplement minus antioxidants.
Test compounds were dissolved in 100% DMSO to a concentration of 2.5 mM (10 mM if excess compound was weighed out per vial—then diluted to 2.5 mM).
Test compounds were not added directly to cells, instead they were added to a 48 well ‘Drug Plate’ as comprised below:
The Drug Plate was incubated at 37° C. for 15 mins. 200 μl of each well was added in triplicate to the corresponding cell plate. The cell plate was incubated at 37 C, for 4 days.
On completion of the assay, 1/10 volume MTS was added per well of plate (ie 25 μl/250 μl). The plates were incubated at 37 C for 2 hrs, and then absorbance was read at 560 nm.

[2] = tested on: Abeta in extract of post-mortem human AD brain tissue; experiment: BAS: human brain amyloid solubilization assay; format: biochemical; settings: max effect across the concentration range, referenced to baseline PBS
Description: Assay 5. Human Brain Amyloid Solubilization Assay
This assay was performed in order to assess the ability of a test compound to mobilise Aβ, as an example form of amyloid, from the insoluble to the soluble phase of an extract of tissue from post mortem human AD brain.
Up to 0.5 g of plaque-bearing cortex without meninges was homogenized using a DIAX 900 homogenizer (Hendolph and Co, Kelheim, Germany) or other suitable device for three 30-second periods at full speed in 2 ml of ice-cold phosphate-buffered saline, pH 7.4. To obtain the phosphate-buffered saline-extractable fraction, the homogenate was centrifuged at 100,000×g for 30 min and the supernatant removed. Alternatively, the tissue was freeze dried then pulverized to form a powder which was then weighed out into aliquots for extraction as above. Supernatant, either freeze-dried and resuspended or in unconcentrated form, was dissolved in 200 μl of Tris-Tricine sodium dodecyl sulfate (SDS) sample buffer pH 8.3 containing 8% SDS, 10% 2-mercaptoethanol. Aliquots (10 μl) were then boiled for 10 minutes before SDS-polyacrylamide gel electrophoresis. The insoluble fraction of the cortical samples was obtained by resuspending the initial pelleted sample in 1 ml of phosphate-buffered saline, A 50-μl aliquot of this suspension was then boiled in […] of sample buffer as above.
Tris-Tricine polyacrylamide gel electrophoresis was performed by loading appropriately diluted samples on to 10% to 20% gradient gels (Novex, San Diego, Calif.) followed by transfer on to 0.2-μm nitrocellulose membrane (Bio-Rad, Hercules, Calif.). Aβ was detected by using monoclonal antibody W02, which detects residues 5 through 8, […] (or another suitable antibody) in conjunction with horseradish peroxidase-conjugated rabbit anti-mouse IgG (Dako, Denmark), and visualized by using enhanced chemiluminescence (eg ECL; Amersham Life Science, Buckinghamshire, UK). Each gel included three lanes containing 0.5, 1, and 2 ng of synthetic Aβ40 (Keck Laboratory, Yale University, New Haven, Conn.) as reference standards.
Blot films were scanned by using a suitable imaging system such as the UVP gel documentation system, and densitometry performed using suitable software, eg UVP Labworks. The dynamic range of the film/scanner was determined by using a step tablet (No. 911ST600, Kodak, Rochester N.Y.), a calibrated film exposed by the manufacturer to provided steps of known increasing intensity. The quantifiable range of signal intensity for densitometric analysis of the mono- and dimeric Aβ bands was based on the comparison with a curve obtained by scanning and densitometry of the step tablet.
All samples were analyzed at least twice, and gel loadings and dilutions were adjusted to fit within the quantifiable region of the standard curve. The proportion of ‘soluble’ to ‘insoluble’ Aβ may be used to determine the efficiency of extraction of a test compound compared with the efficiency of a known compound. The insoluble Aβ being comprised of the pelletable fraction derived from the insoluble amyloid plaque from the above cortical samples and the soluble fraction comprising monomeric and/or oligomeric soluble Aβ.

[3] = target: T2, Abeta:Zn (25:50 μM) Synthetic Aggregations (Homo sapiens, UniProt P05067); experiment: Disaggregation of Abeta:Zn synthetic aggregates (ThT fluorescence); format: biochemical; settings: for Disaggregation % Aggregate reduction at 5 μM: 5 μM test compound; for EC50: Abeta:Zn 25:50 μM aggregates
T2 construct: PB Compound Mediated Dissolution of Aggregated Abeta 1-42; purchased Keck Laboratory, Yale University School of Medicine
Description: PB Compound Mediated Dissolution of Aggregated Abeta 1-42
Abeta1-42, is available from the Keck Laboratory, Yale University School of Medicine. PBS (pH 6.6): Sigma Cat# D-8662. Zn(ZnCl2): BDH Cat#100884E. (Dissolved in water in 1 mM concentration) DMSO: Ajax Cat#2225. Thioflavin T: Sigma Cat# T-3516. (Dissolved in water in 1 mM concentration)
By way of example of an amyloid composition, Abeta is dissolved in distilled water and peptide concentration is assessed by measured absorption at 214 nm in UV spectrometer. An aggregation reactive mixture (per one concentration of one testing compound) is set us as follows: Abeta: 25 μM, ZnCl2 50 μM, ThT 50 μM, PBS to make up to 500 μl. The tube is wrapped with foil and incubated at 37 degrees by rotation for 24 hours. A serial dilution of each test compound is made up in DMSO, for example: 100 μM, 500 μM, 1000 μM, 2500 μM and 5000 μM. The final concentrations are 1, 5, 10, 25 and 50 μM, 5 μl of each of these compounds is placed in a centrifuge tube and 5 μl of DMSO is added to both negative and positive control tubes. 495 μl of aggregates (after 24 hours incubation) is added to the centrifuge tube. The negative control is PBS plus ZnCl2 and ThT and DMSO. The positive control is aggregates plus DMSO. The tubes are incubated at 37 degrees for further 2 hours with rotation. Samples are measured for ThT fluorescence using an LS55 (Perkin Elmer) fluorimeter in a cuvette (500 μl volume). The excitation wavelength is 450 nm and the emission wavelength is 480 nm. Data are analyzed using graph pad prism program. The tested compounds included so called “PB” compounds.

[4] = tested on: M17 human neuroblastoma cells; experiment: Cytotoxicity, M17 human neuroblastoma cells; format: cell-based; settings: for Cytotox (% viable) M17 cells at 1 μM: 1 μM test compound; for Cytotox (% viable) M17 cells at 10 μM: 10 μM test compound
Description: as §1, §2

T1 sequence (P05067 672-713 limits assumed): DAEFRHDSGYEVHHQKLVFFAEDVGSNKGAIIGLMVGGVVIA
T2 sequence (P05067 672-713 limits assumed): as above

Structure (SMILES) | IC50 (Aβ 1-42) [nM] | Cytotox (% viable) Neuronal cells at 1 μM [1] [%] | Cytotox (% viable) Neuronal cells at 10 μM [1] [%] | BAS max effect [2] [%] | Disaggregation % Aggregate reduction at 5 μM [3] [%] | EC50 [3] [nM] | Cytotox (% viable) M17 cells at 1 μM [4] [%] | Cytotox (% viable) M17 cells at 10 μM [4] [%]
Cl.Nc1ccc(O)c2ncccc12 [PB 44] | > 10000 | 108 | 71 | 191 | – | – | – | –
Oc1c(I)cc(I)c2cccnc12 [PB 46] | 400 | 91 | 95 | – | 58.7 | 4100 | – | –
CN(c1ccc2cccc(O)c2n1)c1ccc2cccc(O)c2n1 [PB 56] | 250 | 80 | 25 | 311 | – | – | – | –
Cc1cc(C)c2cccnc2c1O [PB 59] | 700 | 86 | 85 | 293 | – | – | – | –
Oc1ccc(/C=C/c2ccc3cccc(O)c3n2)cc1 [PB 89] | 2500 | 100 | 75 | 233 | – | – | – | –
O=C(O)c1ccccc1Nc1cccc(C(F)(F)F)c1 [PB 233] | > 10000 | – | – | 330 | – | – | – | –
CCCCc1ccc2ccc3ccc(CCCC)nc3c2n1 [PB 847] | < 2500 | – | – | 271 | – | – | – | –
O=C(NC(=S)Nc1cccc2cccnc12)c1ccccc1 [PB 915] | 1900 | – | – | 202 | – | – | – | –
C1CNCCSCCN1 [PB 942] | < 100 | – | – | 220 | – | – | – | –
CCN(CC)c1ccc2cc(-c3nc4ccccc4s3)c(=O)oc2c1 [PB 981] | – | – | – | 580 | – | – | – | –
Cc1ccc2c(c1)sc(-c1ccc(N(C)C)cc1)[n+]2C [PB 982] | – | – | – | 188 | – | – | – | –
Cc1ccc2nc(-c3ccc(N(C)C)cc3)sc2c1 [PB 983] | – | – | – | 278 | – | – | – | –
CN(C)c1ccc(/C=C/c2nc3ccccc3s2)cc1 [PB 985] | – | – | – | 265 | – | – | – | –
Nc1ccccc1NC(=O)c1cc(O)c2cccc(O)c2n1 [PB 986] | 3600 | 98 | 82 | – | 28 | 18400 | – | –
Oc1cc2cccnc2c2cccnc12 [PB 1026] | 230 | – | – | 186 | – | – | – | –
Oc1cccc2nc3ccccc3nc12 [PB 1027] | – | – | – | 306 | – | – | – | –
Cn1cnc2c(O)cccc21 [PB 1041] | – | – | – | 319 | – | – | – | –
Oc1cccc2cc3ccccc3nc12 [PB 1043] | – | – | – | 175 | – | – | – | –
OC1=NN=CC2C=CC=NC12 (stereo not drawn) [PB 1044] | – | – | – | 212 | – | – | – | –
COC(=O)c1nc(Cl)c2cccnc2c1O [PB 1045] | – | – | – | 166 | – | – | – | –
COC(=O)c1nc(O)c2cccnc2c1O [PB 1046] | – | – | – | 244 | – | – | – | –
O=c1ccnc2c(O)cccn12 [PB 1048] | – | – | – | 257 | – | – | – | –
O=c1[nH]cnc2c(O)cccc12 [PB 1049] | – | – | – | 237 | – | – | – | –
O=c1c(-c2ccc(Cl)cc2)cnc2c(O)cccn12 [PB 1069] | 480 | 97 | 42 | – | 34.8 | 11300 | 41.2 | 25.8
CNCc1ccc2c(Cl)cc(Cl)c(O)c2n1.Cl [PB 1104] | 350 | 86 | 78 | – | 19.1 | > 20000 | – | –
CCN(CC)Cc1ccc2c(Cl)cc(Cl)c(O)c2n1.Cl [PB 1106] | 400 | 74 | 70 | – | 17.9 | 14200 | – | –
Br.Oc1cccc2c(=S)n(Cc3ccccn3)cnc12 [PB 1113] | 3200 | 97 | 90 | – | 25.5 | > 20000 | – | –
CCn1cnc2c(O)c(Cl)cc(Cl)c2c1=O [PB 1115] | 950 | 93 | 58 | – | 17 | > 20000 | 104.3 | 95.9
CCOC(=O)c1cnc2c(O)c(CC)ncc2c1 [PB 1116] | 1630 | 103 | 92 | – | 16.8 | > 20000 | – | –
CCN(CC)CCNC(=O)c1cnc2c(O)cccn2c1=O [PB 1199] | 1640 | – | – | – | 20.4 | > 20000 | 115.2 | 102.7
